Consider ten molecules from ChEMBL document CHEMBL1201862, “PubChem BioAssay data set” (2004).

Experiment in all cases: NCI anticancer screen, dose series, 48 h
Assay [1] relates to 786-0.
For assay [2], the system named is A549.
Assay [3] has as its system COLO 205.
The test system of assay [4] is EKVX.
In assay [5] the test system is HT-29.
The subject of assay [6] is IGROV-1.
Assay [7] concerns K562.
Assay [8] relates to Malme-3M.
Assay [9] has as its system NCI-H23.
Assay [10] concerns NCI-H460.
The test system of assay [11] is OVCAR-3.
In assay [12] the test system is SK-MEL-28.
In assay [13] the test system is SN12C.
In assay [14] the test system is UACC-257.
Assay [15] has as its system UO-31.
For assay [16], the system named is NCI-H226.

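Growth conditions: 96-well plates. Treatment: test compound, 48 hours, 5 concentrations. Analysis: linear interpolation between bracketing concentrations; unreached endpoints set to highest concentration. Here, GI50 denotes the concentration required for 50% inhibition of growth.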 Active and inactive are the calls of the source. Cut-off read from the data, not from the text of the source: active = GI50 up to about 1.1 µM and inactive = higher.

Take `CC1(C)C2C/C(=C\c3ccccc3)C(=O)C1C2` (stereo not drawn): the GI50 in assay [1] is > 100 µM (inactive); in [2], 93.5 µM (inactive); in assay [3] it was > 100 µM (inactive); in assay [4], 86.9 µM (inactive); in assay [5] it was 87.9 µM (inactive); in assay [6], > 100 µM (inactive). Moreover, the GI50 in assay [7] is > 100 µM (inactive); in assay [8] it was > 100 µM (inactive); in assay [9], 55.8 µM (inactive); in [10] it was > 100 µM (inactive); in assay [11], > 100 µM (inactive); in [12], 87.5 µM (inactive). For the same molecule, the GI50 in [13] was > 100 µM (inactive); in assay [14] it was 58.1 µM (inactive); in [15], 31.1 µM (inactive).

For `O=C(CC1(O)C(=O)Nc2c(Cl)cc(Cl)cc21)c1cccc2ccccc12` (stereo not drawn), the GI50 in assay [1] was 15.8 µM (inactive); in assay [2], 15.1 µM (inactive); in assay [3], 17 µM (inactive); in [4] it was 16 µM (inactive); in assay [5], 19.6 µM (inactive); in assay [6] it was 18.6 µM (inactive). The GI50 in [7] is 16.6 µM (inactive); in assay [8] it was 19.5 µM (inactive); in [16], 16.5 µM (inactive); in assay [9], 16.9 µM (inactive); in assay [10] it was 16.6 µM (inactive); in [11], 16.1 µM (inactive). Also, the GI50 in assay [12] is 18.7 µM (inactive); in assay [13], 18.4 µM (inactive); in assay [14], 15.8 µM (inactive).

Take `CC1=C(C(=O)CC(=O)C(=O)Nc2ccccc2C(F)(F)F)Sc2ccccc2N1`: the GI50 was > 100 µM (inactive) in assay [1]; 51.1 µM (inactive) in assay [2]; > 100 µM (inactive) in assay [3]; 64.7 µM (inactive) in assay [4]; > 100 µM (inactive) in [5]; 44 µM (inactive) in assay [6]. The GI50 in [7] was 49.1 µM (inactive); in [8], > 100 µM (inactive); in [16], 15.6 µM (inactive); in assay [9] it was 22.1 µM (inactive); in assay [10], 57.1 µM (inactive); in assay [11], 25.4 µM (inactive). The GI50 in [13] is 56.4 µM (inactive); in [14] it was 42.2 µM (inactive); in assay [15] it was 25.4 µM (inactive).

With `CCOC(=O)c1ccc(/N=N/c2cc(C(=O)OCC)ccc2O)cc1`, the GI50 in assay [1] is 76 µM (inactive); in [2] it was > 100 µM (inactive); in assay [3] it was > 100 µM (inactive); in [4] it was 20.1 µM (inactive); in assay [5], 43.6 µM (inactive); in assay [6], > 100 µM (inactive). Besides, the GI50 in assay [7], in assay [9], in assay [10], in assay [12], in assay [13] and in assay [15] was > 100 µM (inactive) throughout.

As for `CC12C/C(=C\c3ccccc3)C(=O)C3C1CCCC32`, the GI50 is 95.9 µM (inactive) in assay [1]; > 100 µM (inactive) in assay [2]; 87.1 µM (inactive) in assay [3]; 31.6 µM (inactive) in [5]; > 100 µM (inactive) in assay [6]; 38.6 µM (inactive) in [7]. For the same molecule, the GI50 in assay [8] was > 100 µM (inactive); in [16], > 100 µM (inactive); in [9], > 100 µM (inactive); in assay [10] it was > 100 µM (inactive); in assay [11], 74.6 µM (inactive); in assay [12], > 100 µM (inactive). Besides, the results for the GI50 in assay [13], in assay [14] and in [15] were > 100 µM (inactive), 53 µM (inactive) and > 100 µM (inactive), respectively.

With `c1cc2nnsc2s1`, the GI50 in assay [1] was 44.5 µM (inactive); in [3] it was 42.3 µM (inactive); in assay [4], > 100 µM (inactive); in assay [5], > 100 µM (inactive); in [6] it was > 100 µM (inactive); in [7] it was > 100 µM (inactive). For the same molecule, the GI50 in [8], in assay [16], in assay [9], in [10], in assay [12] and in assay [13] was > 100 µM (inactive) throughout. The GI50 in assay [14] and in [15] was > 100 µM (inactive) throughout.

Take `O=C1c2ccccc2C(=O)c2[nH]cnc21`: the GI50 is 75.9 µM (inactive) in assay [1]; 55.3 µM (inactive) in assay [2]; 91.2 µM (inactive) in [4]; 33.5 µM (inactive) in [5]; 78.7 µM (inactive) in [7]; 20 µM (inactive) in [8]. For the same molecule, the GI50 was 29.8 µM (inactive) in [16]; 30.2 µM (inactive) in assay [9]; 32.1 µM (inactive) in assay [10]; 21.5 µM (inactive) in assay [11]; > 100 µM (inactive) in assay [12]; 95.7 µM (inactive) in [13]. The GI50 in assay [14] is 23 µM (inactive); in assay [15], > 100 µM (inactive).

`CS(=O)(=O)c1nc(N)nc2nc[nH]c12`: the GI50 in assay [1], in [2], in [3], in [4], in [5] and in assay [6] was > 100 µM (inactive) in each case. The GI50 in [7], in assay [16], in assay [9], in [10], in assay [11] and in assay [12] was > 100 µM (inactive) throughout. Further, the GI50 in assay [13], in assay [14] and in [15] was > 100 µM (inactive) each time.

As for `COc1cc(C2c3cc4c(cc3[C@@H](NCCN3CCCCC3)C3COC(=O)[C@H]23)OCO4)cc(OC)c1O` (stereo partly drawn), the GI50 in assay [1] is 0.188 µM (active); in assay [2] it was 0.0484 µM (active); in assay [3], 0.782 µM (active); in assay [4], 1.63 µM (inactive); in [5], 1.23 µM (inactive); in [6], 1.46 µM (inactive). Further, the GI50 in [7] was 0.822 µM (active); in [8] it was 0.451 µM (active); in assay [16] it was 0.0324 µM (active); in assay [9], 0.167 µM (active); in [11], 1.04 µM (active); in assay [12] it was 2.42 µM (inactive). Besides, the figures for the GI50 in [13], in assay [14] and in [15] were 2.04 µM (inactive), 2.93 µM (inactive) and 0.566 µM (active), respectively.

As to `COc1ccc(/N=C(/[N-]n2c(=O)c(C)nn(C)c2=S)N(c2ccc(OC)cc2)c2n[n+]3c(=O)c(C)nn(C)c3s2)cc1`, the GI50 in assay [1], in [2], in assay [3], in [4], in assay [5] and in assay [6] was > 100 µM (inactive) each time. Besides, the GI50 in assay [7], in assay [16], in [9], in assay [10], in [12] and in assay [13] was > 100 µM (inactive) in each case. The GI50 in assay [14] was > 100 µM (inactive).
